{"source": "paper PMC5398914", "about": "(Nature, 2017)", "target": "T1, OxsB + OxsA (OxsA/OxsB) (Priestia megaterium, UniProt O24770)", "T1 sequence (O24770 1-744)": "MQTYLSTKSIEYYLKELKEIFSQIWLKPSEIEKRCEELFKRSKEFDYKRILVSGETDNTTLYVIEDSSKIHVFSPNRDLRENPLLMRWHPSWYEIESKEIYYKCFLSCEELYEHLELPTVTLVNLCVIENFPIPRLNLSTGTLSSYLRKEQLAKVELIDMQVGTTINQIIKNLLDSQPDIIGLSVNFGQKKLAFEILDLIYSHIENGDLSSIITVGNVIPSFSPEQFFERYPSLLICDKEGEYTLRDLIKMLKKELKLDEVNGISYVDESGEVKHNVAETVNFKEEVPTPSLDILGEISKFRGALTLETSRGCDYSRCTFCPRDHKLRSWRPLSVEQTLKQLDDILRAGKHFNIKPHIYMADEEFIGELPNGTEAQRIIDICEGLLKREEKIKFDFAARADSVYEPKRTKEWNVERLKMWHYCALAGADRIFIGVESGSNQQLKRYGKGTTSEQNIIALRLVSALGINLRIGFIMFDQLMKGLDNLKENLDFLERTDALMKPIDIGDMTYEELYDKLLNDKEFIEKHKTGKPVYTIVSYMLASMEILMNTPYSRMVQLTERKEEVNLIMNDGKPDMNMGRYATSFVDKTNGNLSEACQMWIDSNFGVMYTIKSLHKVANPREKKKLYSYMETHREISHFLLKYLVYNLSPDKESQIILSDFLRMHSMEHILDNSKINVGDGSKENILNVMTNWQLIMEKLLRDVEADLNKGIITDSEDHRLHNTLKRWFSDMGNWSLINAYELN", "experiment": "HPLC product detection, MS and NMR", "type": "biochemical", "conditions": "AdoMet, HO-Cbl, MgCl2, DTT, NADPH / methyl viologen"}
{"smiles": "Nc1ncnc2c1ncn2[C@H]1C[C@H](O)[C@@H](COP(=O)(O)O)O1", "note": "[dAMP]", "values": [{"measurement": "HPLC product detection, MS and NMR", "value": "identify dAMP, dADP and dATP as OXT-A precursors"}]}
